Common to all, as to format: in vivo
Holding throughout (settings): rated four to five weeks after treatment

The test system of test [1] is ORYZA SATIVA, L. TEBONNET
Put plainly: Postemergence herbicidal evaluation, ORYSAT (Rice, Tebonnet). An outline of the steps:
(§1)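 About two-week-old seedlings were sprayed with compound in 50/50 acetone/water with 0.5% TWEEN 20 at about 0.125 to 0.500 kg/ha, nozzle at 40 psi. Plants were kept in the greenhouse and rated 4-5 weeks after treatment on a 0-9 visual scale versus control, averaging replicate tests.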

Test [2] concerns TRITICUM AESTIVUM, CV. APOLLO. The test can be described thus: Postemergence herbicidal evaluation, TRZAWO (Wheat, Winter, CV. APOLLO). An outline of the steps:
as §1

In test [3] the test system is ECHINOCHLOA CRUS-GALLI, (L) BEAU. Put plainly: Postemergence herbicidal evaluation, ECHCG (Barnyardgrass). An outline of the steps: as §1
The test system of test [4] is GLYCINE MAX(L)MERR. CV. WILLIAMS
Put plainly: Postemergence herbicidal evaluation, GLXMAW (Soybean, Williams). How it is done: In the tests, seedling plants are grown in jiffy flats for about two weeks. The test compounds are dispersed in 50/50 acetone/water mixtures containing 0.5% TWEEN®20, a polyoxyethylene sorbitan monolaurate surfactant of Atlas Chemical Industries, in sufficient quantities to provide the equivalent of about 0.125 kg to 0.500 kg per hectare of active compound when applied to the plants through a spray nozzle operating at 40 psi for a predetermined time. After spraying, the plants are placed on greenhouse benches and are cared for in the usual manner, commensurate with conventional greenhouse practices. From four to five weeks after treatment, the seedling plants are examined and rated according to the rating system set forth below. Where more than one test is involved for a given compound, the data are averaged.
Results of herbicide evaluation are expressed on a rating scale (0-9). The scale is based upon a visual observation of plant stand, vigor, malformation, size, chlorosis and overall plant appearance as compared with a control.

Test [5] has as its system SETARIA VIRIDIS, (L) BEAU. Put plainly: Postemergence herbicidal evaluation, SETVI (Foxtail, Green). An outline of the steps: as §1

As to `C=CCn1c(=O)n(CC=C)c(=O)n(-c2cc(N3C(=O)C4=C(CCCC4)C3=O)c(F)cc2Cl)c1=O` [Compound 19, N-[4-Chloro-5-(3,5-diallylhexahydro-2,4,6-trioxo-s-triazin-1-yl)-2-fluorophenyl]-1-cyclohexene-1,2-dicarboximide], the “Herbicide rating (0-9) ORYSAT” value in test [1] (0.125 kg/ha), in test [1] (0.250 kg/ha) and in test [1] (0.500 kg/ha) was 2.0 throughout. Besides, the “Herbicide rating (0-9) TRZAWO” value in test [2] (0.125 kg/ha), in test [2] (0.250 kg/ha) and in test [2] (0.500 kg/ha) was 2.0 in each case. Also, the “Herbicide rating (0-9) ECHCG” value in test [3] (0.125 kg/ha), in test [3] (0.250 kg/ha) and in test [3] (0.500 kg/ha) was 0.0 each time. Besides, the “Herbicide rating (0-9) GLXMAW” value in test [4] (0.125 kg/ha), in test [4] (0.250 kg/ha) and in test [4] (0.500 kg/ha) was 1.0 each time. Moreover, the “Herbicide rating (0-9) SETVI” value in test [5] (0.125 kg/ha), in test [5] (0.250 kg/ha) and in test [5] (0.500 kg/ha) was 0.0 throughout.

The record behind these values is patent EP0745599A2, “1-(3-Heterocyclylphenyl)-s-triazine-2,4,6-oxo or thiotrione herbicidal agents” (American Cyanamid Company, priority 1995, dated 1996).
